In paper PMC12095788 (Communications Chemistry, 2025):

Columns and labels:
[1] = biological target: full-length human Nurr1 / RXR heterodimer (DR5) (Homo sapiens, UniProt P43354); test: Full-length Nurr1 reporter gene assay, RXR-heterodimer response element (DR5); assay type: cell-based
[2] = biological target: T1, Gal4-Nurr1 (wt human Nurr1 LBD) (Homo sapiens, UniProt P43354); test: Gal4-Nurr1 hybrid reporter gene assay (wild-type); assay type: cell-based
T1 construct: expressed in transfected cells; host or cells: HEK293T

Nurr1 LBD - NCOR1 = biological target: T2, Nurr1 LBD - NCOR1 (Homo sapiens, UniProt P43354); test: HTRF co-regulator recruitment assay, NCOR1; assay type: biochemical; conditions: fluorescein labeled corepressor peptide, read-out: IC50 NCOR1 displacement from Nurr1 LBD
T2 construct: a plasmid construct encoding Nurr1 (aa 364-598) in a pMal vector system; MBP (cleaved yes); made in house; host or cells: E. coli BL21-R3-pRARE2
From the text: (§1) Homogeneous time-resolved fluorescence energy transfer (HTRF) experiments were used to study the recruitment of co-regulator peptides to the Nurr1-LBD in the presence or absence of test compounds. Terbium cryptate as streptavidin conjugate (Tb-SA; Cisbio Bioassays, Codolet, France) was used as FRET donor for stable coupling to biotinylated recombinant Nurr1 LBD protein. Fluorescein-labeled co-regulator peptides were used as FRET acceptors (peptide sequences are reported in Supplementary Tab. 4). […] Recruitment of CoREST and Lmx1b peptides was studied using biotin-labeled peptides for stable coupling to Tb-SA as FRET donor and sGFP-Nurr1[26] LBD as FRET acceptor. […] Experiments were carried out in 384 well format using white flat bottom small volume polystyrol microtiter plates (Greiner Bio-One, Frickenhausen, Germany). After 2 h incubation at rt, fluorescence intensities (FI) after excitation at 340 nm were recorded at 520 nm for fluorescein acceptor fluorescence and 620 nm for Tb-SA donor fluorescence on a SPARK plate reader (Tecan Group Ltd.). FI520 nm was divided by FI620 nm and multiplied with 10,000 to give a dimensionless HTRF signal.

[3] = biological target: full-length human Nurr1 (NBRE) (Homo sapiens, UniProt P43354); test: Full-length Nurr1 reporter gene assay, monomer response element (NBRE); assay type: cell-based
Nurr1 LBD - SMRT = biological target: T3, Nurr1 LBD - SMRT (Homo sapiens, UniProt P43354); test: HTRF co-regulator recruitment assay, SMRT; assay type: biochemical; conditions: fluorescein labeled corepressor peptide, read-out: IC50 SMRT displacement from Nurr1 LBD
T3 construct: a plasmid construct encoding Nurr1 (aa 364-598) in a pMal vector system; MBP (cleaved yes); made in house; host or cells: E. coli BL21-R3-pRARE2
From the text: as §1

Nurr1 LBD - NRIP = biological target: T4, Nurr1 LBD - NRIP (Homo sapiens, UniProt P43354); test: HTRF co-regulator recruitment assay, NRIP; assay type: biochemical; conditions: fluorescein labeled coactivator peptide, read-out: IC50 NRIP displacement from Nurr1 LBD
T4 construct: a plasmid construct encoding Nurr1 (aa 364-598) in a pMal vector system; MBP (cleaved yes); made in house; host or cells: E. coli BL21-R3-pRARE2
From the text: as §1

[4] = biological target: full-length human Nurr1 (NurRE) (Homo sapiens, UniProt P43354); test: Full-length Nurr1 reporter gene assay, homodimer response element (NurRE); assay type: cell-based
Nurr1 LBD - Lmx1b = biological target: T5, Nurr1 LBD - Lmx1b (Homo sapiens, UniProt P43354); test: HTRF co-regulator recruitment assay, Lmx1b; assay type: biochemical; conditions: biotinylated Lmx1b peptide, sGFP-Nurr1 LBD
T5 construct: sGFP-Nurr1[26]; LBD as FRET acceptor; made in house
From the text: as §1

Nurr1 LBD - CoREST = biological target: T6, Nurr1 LBD - CoREST (Homo sapiens, UniProt P43354); test: HTRF co-regulator recruitment assay, CoREST; assay type: biochemical; conditions: biotinylated CoREST peptide, sGFP-Nurr1 LBD
T6 construct: sGFP-Nurr1[26]; LBD as FRET acceptor; made in house
From the text: as §1

Nurr1 LBD - PIASγ = biological target: T7, Nurr1 LBD - PIASγ (Homo sapiens, UniProt P43354); test: HTRF co-regulator recruitment assay, PIASγ; assay type: biochemical; conditions: fluorescein labeled corepressor peptide, read-out: IC50 PIASγ displacement from Nurr1 LBD
T7 construct: a plasmid construct encoding Nurr1 (aa 364-598) in a pMal vector system; MBP (cleaved yes); made in house; host or cells: E. coli BL21-R3-pRARE2
From the text: as §1

Nurr1 LBD - NCoA6 = biological target: T8, Nurr1 LBD - NCoA6 (Homo sapiens, UniProt P43354); test: HTRF co-regulator recruitment assay, NCoA6; assay type: biochemical; conditions: fluorescein labeled coactivator peptide, read-out: IC50 NCoA6 displacement from Nurr1 LBD
T8 construct: a plasmid construct encoding Nurr1 (aa 364-598) in a pMal vector system; MBP (cleaved yes); made in house; host or cells: E. coli BL21-R3-pRARE2
From the text: as §1

Nurr1 LBD (wt) [5] = biological target: T9, Nurr1 LBD (wt) (Homo sapiens, UniProt P43354); test: Binding kinetics by biolayer interferometry (BLI); set-up: For generation of biotinylated Nurr1 a plasmid construct encoding Nurr1 (aa 364-598) in a pMal vector system; MBP (cleaved yes); made in house; host or cells: E.coli BL21-R3-pRARE2; conditions: read-out: dissociation rate koff
Target sequence in this assay (P43354 364-598): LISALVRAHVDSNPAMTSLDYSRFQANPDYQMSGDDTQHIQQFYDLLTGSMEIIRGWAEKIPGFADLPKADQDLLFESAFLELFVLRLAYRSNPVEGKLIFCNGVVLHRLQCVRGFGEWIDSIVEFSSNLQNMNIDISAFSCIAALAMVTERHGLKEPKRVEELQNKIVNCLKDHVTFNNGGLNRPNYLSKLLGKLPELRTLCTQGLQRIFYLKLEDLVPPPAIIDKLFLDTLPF
Experimental: BLI measurements were conducted using the Octet R8 instrument (Sartorius). Nurr1 was enzymatically biotinylated using BirA, and Super Streptavidin (SSA) sensors were used to capture the biotinylated Nurr1. Prior to the assay, SSA sensors were pre-soaked for 10 minutes in a buffer containing 20 mM HEPES (pH 7.4), 150 mM NaCl, 0.01% Tween-20, and 0.5% DMSO. The sensors were then loaded with 2 μM biotinylated Nurr1 for 10 min, reaching a response of ~10 nm. Free biotin sites were blocked by incubating the sensors with 20 μg/ml biocytin for 1 minute. After quenching, the sensors were washed for 20 min with HEPES buffer and equilibrated for 5 min in the same buffer supplemented with 1% PEG3K. The binding of compounds was monitored for 120 s, followed by a 120 s dissociation phase. Two control experiments were conducted: one with sensors coated with the protein but without the compound, and the other with uncoated biosensors exposed to the compound at corresponding concentrations. These controls were used to correct for non-specific binding and baseline interference.

[6] = biological target: T10, Nurr1 LBD - RXRα LBD heterodimer (Homo sapiens, UniProt P43354); test: HTRF Nurr1-RXRα heterodimer formation assay; assay type: biochemical; set-up: a plasmid construct encoding Nurr1 (aa 364-598) in a pMal vector system; MBP (cleaved yes); made in house; host or cells: E.coli BL21-R3-pRARE2 (biotinylated Nurr1 LBD)
Experimental: Assay solutions were prepared in HTRF assay buffer supplemented with 0.1% (w/v) CHAPS as well as 1% DMSO with test compounds at fixed concentrations or DMSO alone as negative control (apo). […] Samples were equilibrated at RT for 2 h before FI520 and FI620 were recorded after excitation at 340 nm, and the HTRF signal was calculated as described above.

Nurr1 LBD (wt) [7] = biological target: T9, Nurr1 LBD (wt); test: ITC ligand binding to Nurr1 wt LBD; conditions: for n ligand binding to Nurr1 LBD: ITC stoichiometry; for n ligand binding to Nurr1 LBD / TΔS ligand binding to Nurr1 LBD: wt LBD
Target sequence in this assay (P43354 360-595 limits assumed): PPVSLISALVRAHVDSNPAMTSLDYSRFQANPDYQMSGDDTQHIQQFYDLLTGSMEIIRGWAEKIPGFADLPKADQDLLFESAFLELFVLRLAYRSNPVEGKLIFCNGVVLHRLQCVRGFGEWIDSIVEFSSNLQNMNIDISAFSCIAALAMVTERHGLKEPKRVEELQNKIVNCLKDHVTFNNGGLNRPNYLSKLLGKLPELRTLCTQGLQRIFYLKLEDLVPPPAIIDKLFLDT

[8] = biological target: T10, Nurr1 LBD - RXRα LBD heterodimer; test: ITC Nurr1-RXR dimerization; conditions: ITC stoichiometry, ligand 200 µM
Gal4-Nurr1 H372F = biological target: T11, Gal4-Nurr1 H372F (Homo sapiens, UniProt P43354, H372F); test: Gal4-Nurr1 hybrid reporter gene assay, mutant H372F; assay type: cell-based; conditions: vs wt
T11 construct: expressed in transfected cells; host or cells: HEK293T

Gal4-Nurr1 I500F = biological target: T12, Gal4-Nurr1 I500F (Homo sapiens, UniProt P43354, I500F); test: Gal4-Nurr1 hybrid reporter gene assay, mutant I500F; assay type: cell-based; conditions: vs wt
T12 construct: expressed in transfected cells; host or cells: HEK293T

Gal4-Nurr1 I500W/V373W = biological target: T13, Gal4-Nurr1 I500W/V373W (Homo sapiens, UniProt P43354, I500W/V373W); test: Gal4-Nurr1 hybrid reporter gene assay, double mutant I500W/V373W; assay type: cell-based; conditions: fold reporter activation vs. DMSO
T13 construct: expressed in transfected cells; host or cells: HEK293T
T13 sequence (P43354 360-595 V373W/I500W limits assumed): as the sequence (P43354 360-595 limits assumed) above, with V14W, I141W counted along it

T10 sequence (P43354 364-598, one chain of several): as the sequence (P43354 364-598) above
T1 sequence (P43354 360-595 limits assumed): as the sequence (P43354 360-595 limits assumed) above
T6 sequence (P43354 360-595 limits assumed): as above
full-length human Nurr1 / RXR heterodimer (DR5), sequence (P43354 whole entry, the tested form may be a part, one chain of several): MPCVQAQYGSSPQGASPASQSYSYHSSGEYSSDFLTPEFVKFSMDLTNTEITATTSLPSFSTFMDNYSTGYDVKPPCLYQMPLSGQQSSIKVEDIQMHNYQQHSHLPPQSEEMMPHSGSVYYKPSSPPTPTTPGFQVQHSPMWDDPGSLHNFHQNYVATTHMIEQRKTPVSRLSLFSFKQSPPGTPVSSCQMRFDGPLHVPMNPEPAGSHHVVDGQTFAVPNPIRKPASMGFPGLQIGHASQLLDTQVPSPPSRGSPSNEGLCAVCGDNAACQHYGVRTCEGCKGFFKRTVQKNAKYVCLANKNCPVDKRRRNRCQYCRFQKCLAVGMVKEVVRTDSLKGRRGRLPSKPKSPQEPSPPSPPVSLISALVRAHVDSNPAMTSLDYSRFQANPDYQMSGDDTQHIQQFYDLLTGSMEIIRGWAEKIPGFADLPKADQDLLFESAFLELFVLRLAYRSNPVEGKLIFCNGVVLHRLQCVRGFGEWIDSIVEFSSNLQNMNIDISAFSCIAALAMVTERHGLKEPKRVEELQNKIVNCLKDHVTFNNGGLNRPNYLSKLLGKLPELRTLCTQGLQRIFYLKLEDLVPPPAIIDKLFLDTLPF
full-length human Nurr1 (NBRE), sequence (P43354 whole entry, the tested form may be a part): as the sequence (P43354 whole entry, the tested form may be a part, one chain of several) above
full-length human Nurr1 (NurRE), sequence (P43354 whole entry, the tested form may be a part): as the sequence (P43354 whole entry, the tested form may be a part, one chain of several) above
T4 sequence (P43354 364-598): as the sequence (P43354 364-598) above
T8 sequence (P43354 364-598): as above
T3 sequence (P43354 364-598): as above
T2 sequence (P43354 364-598): as above
T7 sequence (P43354 364-598): as above
T11 sequence (P43354 360-595 H372F limits assumed): as the sequence (P43354 360-595 limits assumed) above, with H13F counted along it
T12 sequence (P43354 360-595 I500F limits assumed): as the sequence (P43354 360-595 limits assumed) above, with I141F counted along it
T5 sequence (P43354 360-595 limits assumed): as the sequence (P43354 360-595 limits assumed) above
T5 sequence (O60663 382-402 partner limits assumed): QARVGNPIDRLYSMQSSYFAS

O=C(O)C1=C(C(=O)Nc2ccc(-c3ccccc3OCc3ccccc3)cc2F)CCC1 [compound 1, 2-{[2’-(Benzyloxy)-3-fluoro-[1,1’-biphenyl]-4-yl]carbamoyl}cyclopent-1-ene-1-carboxylic acid]
EC50 [1]: 0.06 ± 0.01 µM | EC50 ([2]; HEK293T, Gal4 hybrid reporter, wt): 0.03 ± 0.01 µM | potency on Gal4-Nurr1 relative to vidofludimus ([2]; higher potency than vidofludimus): 10 fold | IC50 (Nurr1 LBD - NCOR1): 4 ± 1 µM | EC50 [3]: 0.06 ± 0.01 µM | IC50 (Nurr1 LBD - SMRT): 5 ± 2 µM | IC50 (Nurr1 LBD - NRIP): 7 ± 2 µM | EC50 [4]: 0.07 ± 0.01 µM | effect on Lmx1b recruitment to Nurr1 LBD (Nurr1 LBD - Lmx1b): no effect | effect on CoREST recruitment to Nurr1 LBD (Nurr1 LBD - CoREST): slightly reduced | IC50 (Nurr1 LBD - PIASγ): 12 ± 2 µM | IC50 (Nurr1 LBD - NCoA6): 7 ± 2 µM | koff (Nurr1 LBD (wt) [5]): 0.0224 s⁻¹ | effect on Nurr1-RXR heterodimerization [6]: weakened | Kd (Nurr1 LBD (wt) [7]): 0.11 µM | n ligand binding to Nurr1 LBD (Nurr1 LBD (wt) [7]): 1.00±0.04 | TΔS ligand binding to Nurr1 LBD (Nurr1 LBD (wt) [7]; ITC): -23 ± 7.53 kJ/mol | affinity to Nurr1 LBD relative to vidofludimus (Nurr1 LBD (wt) [7]; enhanced affinity vs vidofludimus, ITC): 7 fold | n Nurr1 LBD – RXR LBD [8]: 0.98±0.09

CC(C)n1c(/C=C/C(O)CC(O)CC(=O)O)c(-c2ccc(F)cc2)c2ccccc21 (stereo not shown) [fluvastatin, reference compound]
effect of H372F mutation on Nurr1 activation by the ligand (Gal4-Nurr1 H372F): did not alter | effect on CoREST recruitment to Nurr1 LBD (Nurr1 LBD - CoREST): slightly reduced | effect of I500F mutation on Nurr1 activation by the ligand (Gal4-Nurr1 I500F): did not alter | activation of Gal4-Nurr1 double mutant I500W/V373W (Gal4-Nurr1 I500W/V373W): responded | n ligand binding to Nurr1 LBD (Nurr1 LBD (wt) [7]): 0.90±0.04 | TΔS ligand binding to Nurr1 LBD (Nurr1 LBD (wt) [7]; ITC): 15.5 ± 1.3 kJ/mol
